Literature values, collected in patent publication US12516015B2 (AMALIVE LIMITED, priority 2009, dated 2026).

For `O=C(O)Cc1ccccc1` [phenyl acetic acid], the pKa is given as about 4.28.
